Laboratory results taken from patent US10562912B2 (C&C Research Laboratories, priority 2013, dated 2020).

Columns and labels:
Type in all cases: cell-based
STAT3 = molecular target: T1, STAT3 (Homo sapiens, UniProt P40763); assay: STAT3 reporter gene assay (luciferase), LNCaP stable cell line (pSTAT3-TA-luc), IL-6 stimulation
T1 construct: plasmid pSTAT3-TA-luc), which contains a stably operating STAT3 promoter; endogenous in cells
Outline: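 Cytotoxicity was run on a duplicate plate with CellTiter-Glo, while the other plate gave luciferase read-outs from lysed LNCaP pSTAT3-TA-luc reporter cells. Cells were treated with graded compound concentrations plus IL-6 (10 ng/mL final) for 24–48 h in 3% DCC-FBS medium. Unstimulated and stimulated wells served as negative and positive controls.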

LNCaP = assay: Cell growth inhibition assay, prostate cancer cell line LNCaP (medium with 10 ng/mL IL-6); conditions: Homo sapiens, medium supplemented with 10 ng/mL of IL-6, 10,000 cells/well
DU-145 = assay: Cell growth inhibition assay, prostate cancer cell line DU-145; conditions: Homo sapiens, DU-145 prostate cancer cell line
Outline: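 Seed DU-145/HCT116 3,000 cells/well, SW626 5,000 cells/well; add compound dilution series; incubate 72–96 h, 37° C., 5% CO2; microscope check for precipitate; CellTiter-Glo, luminescence. Blank = no cells; vehicle = 0.1% DMSO.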

T1 sequence (P40763 whole entry): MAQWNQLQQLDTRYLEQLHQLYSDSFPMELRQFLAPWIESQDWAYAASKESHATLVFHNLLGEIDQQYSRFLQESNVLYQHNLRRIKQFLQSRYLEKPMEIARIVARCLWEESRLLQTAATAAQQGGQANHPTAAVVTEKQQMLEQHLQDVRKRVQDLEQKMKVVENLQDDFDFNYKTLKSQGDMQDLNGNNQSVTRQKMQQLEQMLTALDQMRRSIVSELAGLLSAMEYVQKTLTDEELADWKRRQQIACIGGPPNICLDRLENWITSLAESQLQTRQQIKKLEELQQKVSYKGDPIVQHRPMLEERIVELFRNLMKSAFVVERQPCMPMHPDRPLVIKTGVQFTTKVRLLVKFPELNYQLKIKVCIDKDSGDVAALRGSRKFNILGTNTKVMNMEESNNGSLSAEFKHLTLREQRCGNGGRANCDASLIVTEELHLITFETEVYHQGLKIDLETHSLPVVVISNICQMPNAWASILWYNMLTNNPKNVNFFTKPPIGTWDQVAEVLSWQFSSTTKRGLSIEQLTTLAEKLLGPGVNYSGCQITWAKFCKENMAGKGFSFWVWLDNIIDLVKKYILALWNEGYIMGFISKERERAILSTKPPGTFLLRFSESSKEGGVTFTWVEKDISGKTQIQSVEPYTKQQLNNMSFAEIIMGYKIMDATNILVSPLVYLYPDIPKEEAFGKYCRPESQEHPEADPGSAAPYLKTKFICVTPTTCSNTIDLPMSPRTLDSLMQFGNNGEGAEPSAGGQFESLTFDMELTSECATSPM

For `CS(=O)(=O)Nc1ccc2sc(C(=O)Nc3cc(Cl)cc(Oc4ccc(F)c(OC(F)(F)F)c4)c3)cc2c1` [Example 470, N-(3-chloro-5-(4-fluoro-3-(trifluoromethoxy)phenoxy)phenyl)-5-(methylsulfonamido)benzo[b]thiophene-2-carboxamide], the IC50 (STAT3) was 0.32 µM, the IC50 (LNCaP) was 0.067 µM and the IC50 (DU-145) was 0.043 µM.
Work on `CS(=O)(=O)Nc1cc2cc(C(=O)Nc3cc(Cl)cc(Oc4nccs4)c3)sc2cc1Cl` [Example 471, 6-chloro-N-(3-chloro-5-(thiazol-2-yloxy)phenyl)-5-(methylsulfonamido)benzo[b]thiophene-2-carboxamide] yielded an IC50 (STAT3) of 0.075 µM, an IC50 (LNCaP) of 0.11 µM and an IC50 (DU-145) of 0.049 µM.
For `CS(=O)(=O)Nc1cc2cc(C(=O)Nc3cc(Cl)cc(Oc4cncs4)c3)sc2cc1Cl` [Example 472, 6-chloro-N-(3-chloro-5-(thiazol-5-yloxy)phenyl)-5-(methylsulfonamido)benzo[b]thiophene-2-carboxamide], the IC50 (STAT3) was 0.1 µM, the IC50 (LNCaP) was 0.37 µM and the IC50 (DU-145) was 0.13 µM.
Compound `CS(=O)(=O)Nc1cc2cc(C(=O)Nc3cc(Cl)cc(Oc4ccc(Cl)s4)c3)sc2cc1Cl` [Example 473, 6-chloro-N-(3-chloro-5-((5-chlorothiophen-2-yl)oxy)phenyl)-5-(methylsulfonamido)benzo[b]thiophene-2-carboxamide] has an IC50 (STAT3) of 0.1 µM, an IC50 (LNCaP) of 0.015 µM and an IC50 (DU-145) of 0.015 µM.
`COc1cc(Cl)cc(Oc2cc(Cl)cc(NC(=O)c3cc4cc(NS(C)(=O)=O)c(Cl)cc4s3)c2)c1` [Example 474, 6-chloro-N-(3-chloro-5-(3-chloro-5-methoxyphenoxy)phenyl)-5-(methylsulfonamido)benzo[b]thiophene-2-carboxamide] gave an IC50 (STAT3) of 0.048 µM, an IC50 (LNCaP) of 0.059 µM and an IC50 (DU-145) of 0.022 µM.
In the case of `CS(=O)(=O)Nc1cc2cc(C(=O)Nc3cc(Cl)cc(Oc4cc(O)cc(Cl)c4)c3)sc2cc1Cl` [Example 475, 6-chloro-N-(3-chloro-5-(3-chloro-5-hydroxyphenoxy)phenyl)-5-(methylsulfonamido)benzo[b]thiophene-2-carboxamide], the IC50 (STAT3) is reported as over 10 µM, the IC50 (LNCaP) is reported as over 1.1 µM and the IC50 (DU-145) is reported as over 1.1 µM.
`CS(=O)(=O)Nc1cc2cc(C(=O)Nc3cc(Cl)cc(Oc4ccc(F)c(Cl)c4)c3)sc2cc1Cl` [Example 476, 6-chloro-N-(3-chloro-5-(3-chloro-4-fluorophenoxy)phenyl)-5-(methylsulfonamido)benzo[b]thiophene-2-carboxamide] was tested, and the IC50 (STAT3) was 0.021 µM, the IC50 (LNCaP) was 0.022 µM and the IC50 (DU-145) was 0.005 µM.
`CS(=O)(=O)Nc1cc2cc(C(=O)Nc3cc(Cl)cc(Oc4ccc(Cl)c(F)c4)c3)sc2cc1Cl` [Example 477, 6-chloro-N-(3-chloro-5-(4-chloro-3-fluorophenoxy)phenyl)-5-(methylsulfonamido)benzo[b]thiophene-2-carboxamide] gave an IC50 (STAT3) of 0.025 µM, an IC50 (LNCaP) of 0.013 µM and an IC50 (DU-145) of 0.01 µM.
Compound `CS(=O)(=O)Nc1cc2cc(C(=O)Nc3cc(Cl)cc(Oc4ccc(F)cc4)c3)sc2cc1Cl` [Example 478, 6-chloro-N-(3-chloro-5-(4-fluorophenoxy)phenyl)-5-(methylsulfonamido)benzo[b]thiophene-2-carboxamide] has an IC50 (STAT3) of 0.022 µM, an IC50 (LNCaP) of 0.018 µM and an IC50 (DU-145) of 0.012 µM.
Work on `CS(=O)(=O)Nc1cc2cc(C(=O)Nc3cc(Cl)cc(Oc4cccc(OC(F)(F)F)c4)c3)sc2cc1Cl` [Example 479, 6-chloro-N-(3-chloro-5-(3-(trifluoromethoxy)phenoxy)phenyl)-5-(methylsulfonamido)benzo[b]thiophene-2-carboxamide] yielded an IC50 (STAT3) of 0.014 µM, an IC50 (LNCaP) of 0.008 µM and an IC50 (DU-145) of 0.006 µM.
`CS(=O)(=O)Nc1cc2cc(C(=O)Nc3cc(Cl)cc(Oc4ccc(OC(F)(F)F)cc4)c3)sc2cc1Cl` [Example 480, 6-chloro-N-(3-chloro-5-(4-(trifluoromethoxy)phenoxy)phenyl)-5-(methylsulfonamido)benzo[b]thiophene-2-carboxamide] was tested, and the IC50 (STAT3) was 0.019 µM, the IC50 (LNCaP) was 0.01 µM and the IC50 (DU-145) was 0.007 µM.
